# Data taken from patent US11477982B2, “2-amino-5-oxyalkyl-pyrimidine derivatives and their use for controlling undesired plant growth” (Bayer CropScience Aktiengesellschaft, priority 2017, dated 2022).
# Columns and labels:
# Assay type in all cases: in vivo
# [1] = test system: ABUTH: Abutilon theophrasti; test: Post-emergence herbicidal effect; conditions: dosage 320 g/ha
# Experimental: (§1) 2. Post-Emergence Herbicidal Effect and Crop Plant Compatibility
# (§2) Seeds of monocotyledonous and dicotyledonous weeds and crop plants are placed in sandy loam in plastic or wood-fiber pots, covered with soil and cultivated in a greenhouse under controlled growth conditions, 2 to 3 weeks after sowing, the test plants are treated at the one-leaf stage. The compounds of the invention, formulated in the form of wettable powders (WP) or as emulsion concentrates (EC), are then sprayed onto the green parts of the plants as aqueous suspension or emulsion with addition of 0.5% additive at a water application rate of 600 l/ha (converted). After the test plants had been kept in the greenhouse under optimum growth conditions for about 3 weeks, the activity of the preparations is rated visually in comparison to untreated controls. For example, 100% activity=the plants have died, 0% activity=like control plants.
# [2] = test system: AMARE: Amaranthus retroflexus; test: Post-emergence herbicidal effect; conditions: dosage 320 g/ha
# Experimental: as §1, §2
# [3] = test system: ECHCG: Echinochloa crus-galli; test: Post-emergence herbicidal effect; conditions: dosage 320 g/ha
# Experimental: as §1, §2
# STEME: Stellaria media [4] = test: Post-emergence herbicidal effect; conditions: dosage 320 g/ha
# Experimental: as §1, §2
# SETVI: Setaria viridis = test: Pre-emergence herbicidal effect; conditions: for Herbicidal action against SETVI: pre-emergence, dosage 320 g/ha
# Excerpt: (§3) 1. Pre-Emergence Herbicidal Effect and Crop Plant Compatibility
# (§4) Seeds of monocotyledonous and dicotyledonous weed plants and crop plants are placed in plastic or wood fiber pots and covered with soil. The compounds of the invention, formulated in the form of wettable powders (WP) or as emulsion concentrates (EC), are then applied onto the surface of the covering soil as aqueous suspension or emulsion with addition of 0.5% additive at a water application rate of 600 l/ha (converted).
# (§5) After the treatment, the pots are placed in a greenhouse and kept under good growth conditions for the trial plants. After about 3 weeks, the effect of the preparations is scored visually in comparison with untreated controls as percentages. For example, 100% activity=the plants have died, 0% activity=like control plants.
# [5] = test system: ALOMY: Alopecurus myosuroides; test: Pre-emergence herbicidal effect; conditions: for Herbicidal action against ALOMY: pre-emergence, dosage 320 g/ha
# Excerpt: as §3, §4, §5
# AVEFA: Avena fatua = test: Pre-emergence herbicidal effect; conditions: dosage 320 g/ha
# Excerpt: as §3, §4, §5
# LOLRI: Lolium rigidum = test: Pre-emergence herbicidal effect; conditions: dosage 320 g/ha
# Excerpt: as §3, §4, §5
# [6] = test system: MATIN: Matricaria inodora; test: Pre-emergence herbicidal effect; conditions: for Herbicidal action against MATIN: pre-emergence, dosage 320 g/ha
# Excerpt: as §3, §4, §5
# [7] = test system: ABUTH: Abutilon theophrasti; test: Pre-emergence herbicidal effect; conditions: dosage 320 g/ha
# Excerpt: as §3, §4, §5
# VERPE: Veronica persica = test: Pre-emergence herbicidal effect; conditions: dosage 320 g/ha
# Excerpt: as §3, §4, §5
# [8] = test system: POLCO: Polygonum convolvulus; test: Pre-emergence herbicidal effect; conditions: dosage 320 g/ha
# Excerpt: as §3, §4, §5
# HORMU: Hordeum murinum = test: Pre-emergence herbicidal effect; conditions: for Herbicidal action against HORMU: pre-emergence, dosage 320 g/ha
# Excerpt: as §3, §4, §5
# [9] = test system: AMARE: Amaranthus retroflexus; test: Pre-emergence herbicidal effect; conditions: for Herbicidal action against AMARE: pre-emergence, dosage 320 g/ha
# Excerpt: as §3, §4, §5
# PHBPU: Ipomoea purpurea = test: Pre-emergence herbicidal effect; conditions: dosage 320 g/ha
# Excerpt: as §3, §4, §5
# [10] = test system: ECHCG: Echinochloa crus-galli; test: Pre-emergence herbicidal effect; conditions: for Herbicidal action against ECHCG: pre-emergence, dosage 320 g/ha
# Excerpt: as §3, §4, §5
# STEME: Stellaria media [11] = test: Pre-emergence herbicidal effect; conditions: for Herbicidal action against STEME: pre-emergence, dosage 320 g/ha
# Excerpt: as §3, §4, §5
# VIOTR: Viola tricolor = test: Pre-emergence herbicidal effect; conditions: dosage 320 g/ha
# Excerpt: as §3, §4, §5
# [12] = Table 4b, pre-emergence as titled, dosage 80 g of a.i./ha
structure (smiles),measurement,setting,value
Cc1ccc2c(c1)[C@H](Nc1ncc(C(C)O)c(C)n1)CC2 (some centres unmarked) [Example 1.13],Herbicidal action against ABUTH,[1],80%
same,Herbicidal action against AMARE,[2],90%
same,Herbicidal action against ECHCG,[3],100%
same,Herbicidal action against STEME,STEME: Stellaria media [4],90%
same,Herbicidal action against SETVI,SETVI: Setaria viridis,100%
same,Herbicidal action against ALOMY,[5],100%
same,Herbicidal action against AVEFA,AVEFA: Avena fatua,100%
same,Herbicidal action against LOLRI,LOLRI: Lolium rigidum,100%
same,Herbicidal action against MATIN,[6],100%
same,Herbicidal action against ABUTH,[7],100%
same,Herbicidal action against VERPE,VERPE: Veronica persica,100%
same,Herbicidal action against POLCO,[8],100%
same,Herbicidal action against HORMU,HORMU: Hordeum murinum,100%
same,Herbicidal action against AMARE,[9],100%
same,Herbicidal action against PHBPU,PHBPU: Ipomoea purpurea,100%
same,Herbicidal action against ECHCG,[10],100%
same,Herbicidal action against STEME,STEME: Stellaria media [11],100%
same,Herbicidal action against VIOTR,VIOTR: Viola tricolor,100%
"Cc1cc2c(s1)CCCC2Nc1ncc(C(C)O)c(C)n1 (centres unmarked) [drawing 19, reference compound]",Herbicidal efficacy against SETVI,SETVI: Setaria viridis; [12],20
same,Herbicidal efficacy against ALOMY,[5]; [12],10
same,Herbicidal efficacy against MATIN,[6]; [12],20
same,Herbicidal efficacy against HORMU,HORMU: Hordeum murinum; [12],0
same,Herbicidal efficacy against AMARE,[9]; [12],30
same,Herbicidal efficacy against ECHCG,[10]; [12],40
same,Herbicidal efficacy against STEME,STEME: Stellaria media [11]; [12],20
Cc1ccc2c(c1)[C@H](Nc1ncc(C(C)(O)C3CC3)cn1)[C@@H](C)C2 (some centres unmarked) [Example 1.20],Herbicidal action against ABUTH,[1],90%
same,Herbicidal action against AMARE,[2],90%
same,Herbicidal action against ECHCG,[3],100%
same,Herbicidal action against STEME,STEME: Stellaria media [4],100%
same,Herbicidal action against SETVI,SETVI: Setaria viridis,100%
same,Herbicidal action against ALOMY,[5],100%
same,Herbicidal action against AVEFA,AVEFA: Avena fatua,100%
same,Herbicidal action against LOLRI,LOLRI: Lolium rigidum,100%
same,Herbicidal action against MATIN,[6],100%
same,Herbicidal action against ABUTH,[7],100%
same,Herbicidal action against VERPE,VERPE: Veronica persica,100%
same,Herbicidal action against POLCO,[8],100%
same,Herbicidal action against HORMU,HORMU: Hordeum murinum,100%
same,Herbicidal action against AMARE,[9],100%
same,Herbicidal action against PHBPU,PHBPU: Ipomoea purpurea,100%
same,Herbicidal action against ECHCG,[10],100%
same,Herbicidal action against STEME,STEME: Stellaria media [11],100%
same,Herbicidal action against VIOTR,VIOTR: Viola tricolor,100%
Cc1ccc2c(c1)[C@H](Nc1ncc(C(C)(C)O)c(C(F)F)n1)[C@@H](C)C2 [Example 1.17],Herbicidal action against ABUTH,[1],90%
same,Herbicidal action against AMARE,[2],80%
same,Herbicidal action against ECHCG,[3],80%
same,Herbicidal action against STEME,STEME: Stellaria media [4],100%
same,Herbicidal action against SETVI,SETVI: Setaria viridis,100%
same,Herbicidal action against ALOMY,[5],100%
same,Herbicidal action against AVEFA,AVEFA: Avena fatua,100%
same,Herbicidal action against LOLRI,LOLRI: Lolium rigidum,100%
same,Herbicidal action against MATIN,[6],100%
same,Herbicidal action against ABUTH,[7],100%
same,Herbicidal action against VERPE,VERPE: Veronica persica,100%
same,Herbicidal action against POLCO,[8],100%
same,Herbicidal action against HORMU,HORMU: Hordeum murinum,100%
same,Herbicidal action against AMARE,[9],100%
same,Herbicidal action against PHBPU,PHBPU: Ipomoea purpurea,80%
same,Herbicidal action against ECHCG,[10],100%
same,Herbicidal action against STEME,STEME: Stellaria media [11],100%
same,Herbicidal action against VIOTR,VIOTR: Viola tricolor,100%
Cc1ccc2c(c1)[C@H](Nc1ncc(C(C)(C)O)c(C)n1)CCO2 [Example 1.53],Herbicidal action against ABUTH,[1],90%
same,Herbicidal action against AMARE,[2],90%
same,Herbicidal action against ECHCG,[3],100%
same,Herbicidal action against STEME,STEME: Stellaria media [4],90%
same,Herbicidal action against SETVI,SETVI: Setaria viridis,100%
same,Herbicidal action against ALOMY,[5],100%
same,Herbicidal action against AVEFA,AVEFA: Avena fatua,100%
same,Herbicidal action against LOLRI,LOLRI: Lolium rigidum,90%
same,Herbicidal action against MATIN,[6],100%
same,Herbicidal action against ABUTH,[7],100%
same,Herbicidal action against VERPE,VERPE: Veronica persica,100%
same,Herbicidal action against POLCO,[8],100%
same,Herbicidal action against HORMU,HORMU: Hordeum murinum,100%
same,Herbicidal action against AMARE,[9],100%
same,Herbicidal action against PHBPU,PHBPU: Ipomoea purpurea,100%
same,Herbicidal action against ECHCG,[10],100%
same,Herbicidal action against STEME,STEME: Stellaria media [11],100%
same,Herbicidal action against VIOTR,VIOTR: Viola tricolor,100%
Cc1ccc2c(c1)[C@H](Nc1ncc(C(C)(C)O)c(C(C)F)n1)[C@@H](C)C2 (some centres unmarked) [Example 1.23],Herbicidal action against SETVI,SETVI: Setaria viridis,100%
same,Herbicidal action against ALOMY,[5],100%
same,Herbicidal action against AVEFA,AVEFA: Avena fatua,100%
same,Herbicidal action against LOLRI,LOLRI: Lolium rigidum,100%
same,Herbicidal action against MATIN,[6],100%
same,Herbicidal action against ABUTH,[7],100%
same,Herbicidal action against VERPE,VERPE: Veronica persica,100%
same,Herbicidal action against POLCO,[8],100%
same,Herbicidal action against HORMU,HORMU: Hordeum murinum,80%
same,Herbicidal action against AMARE,[9],100%
same,Herbicidal action against PHBPU,PHBPU: Ipomoea purpurea,100%
same,Herbicidal action against ECHCG,[10],100%
same,Herbicidal action against STEME,STEME: Stellaria media [11],100%
same,Herbicidal action against VIOTR,VIOTR: Viola tricolor,100%
Cc1ccc2c(c1)[C@H](Nc1ncc(C(C)(O)C3(C)CC3)cn1)[C@@H](C)C2 (some centres unmarked) [Example 1.61],Herbicidal action against ABUTH,[1],90%
same,Herbicidal action against AMARE,[2],90%
same,Herbicidal action against ECHCG,[3],100%
same,Herbicidal action against STEME,STEME: Stellaria media [4],90%
same,Herbicidal action against SETVI,SETVI: Setaria viridis,100%
same,Herbicidal action against ALOMY,[5],100%
same,Herbicidal action against AVEFA,AVEFA: Avena fatua,80%
same,Herbicidal action against LOLRI,LOLRI: Lolium rigidum,100%
same,Herbicidal action against MATIN,[6],100%
same,Herbicidal action against ABUTH,[7],100%
same,Herbicidal action against VERPE,VERPE: Veronica persica,100%
same,Herbicidal action against POLCO,[8],100%
same,Herbicidal action against HORMU,HORMU: Hordeum murinum,100%
same,Herbicidal action against AMARE,[9],100%
same,Herbicidal action against PHBPU,PHBPU: Ipomoea purpurea,90%
same,Herbicidal action against ECHCG,[10],100%
same,Herbicidal action against STEME,STEME: Stellaria media [11],100%
same,Herbicidal action against VIOTR,VIOTR: Viola tricolor,100%
Cc1nc(NC2c3ccccc3CC2C)ncc1C(C)(C)O (mixture of isomers) [Example 1.51],Herbicidal action against SETVI,SETVI: Setaria viridis,100%
same,Herbicidal action against ALOMY,[5],100%
same,Herbicidal action against AVEFA,AVEFA: Avena fatua,80%
same,Herbicidal action against LOLRI,LOLRI: Lolium rigidum,100%
same,Herbicidal action against MATIN,[6],100%
same,Herbicidal action against ABUTH,[7],100%
same,Herbicidal action against VERPE,VERPE: Veronica persica,100%
same,Herbicidal action against POLCO,[8],100%
same,Herbicidal action against HORMU,HORMU: Hordeum murinum,90%
same,Herbicidal action against AMARE,[9],100%
same,Herbicidal action against PHBPU,PHBPU: Ipomoea purpurea,100%
same,Herbicidal action against ECHCG,[10],100%
same,Herbicidal action against STEME,STEME: Stellaria media [11],100%
same,Herbicidal action against VIOTR,VIOTR: Viola tricolor,100%
